# According to US9265253B2, “Use of macrocyclic picolinamides as fungicides” (DOW AGROSCIENCES LLC, priority 2013, dated 2016):
# Like-named read-outs stand apart in the source and are kept apart here.
# Assays:
# [1] = system: Phakopsora pachyrhizi; experiment: Asian Soybean Rust (PHAKPA) disease control; format: in vivo; conditions: for pest or weed control at 25 ppm: Phakopsora pachyrhizi, topical
# Protocol: Technical grades of materials were dissolved in acetone, which were then mixed with nine volumes of water containing 0.011% Tween 20. The fungicide solutions were applied onto soybean seedlings using an automated booth sprayer to run-off. All sprayed plants were allowed to air dry prior to further handling.
# Soybean plants (variety Williams 82) were grown in soil-less Metro mix, with one plant per pot. Two weeks old seedlings were used for testing. Plants were inoculated either 3 days prior to or 1 day after fungicide treatments. Plants were incubated for 24 h in a dark dew room at 22° C. and 100% RH then transferred to a growth room at 23° C. for disease to develop. Disease severity was assessed on the sprayed leaves.
# [2] = system: Blumeria graminis f. sp. tritici; Synonym: Erysiphe graminis f. sp. tritici; experiment: Wheat Powdery Mildew (ERYSGT) disease control; format: in vivo; conditions: 100 ppm, 1 Day Protectant
# Protocol: Technical grades of materials were dissolved in acetone, which were then mixed with nine volumes of water containing 110 ppm Triton X-100. The fungicide solutions were applied onto wheat seedlings using an automated booth sprayer to run-off. All sprayed plants were allowed to air dry prior to further handling. All fungicides were evaluated using the aforementioned method for their activity vs. all target diseases. Wheat leaf blotch and brown rust activity were also evaluated using track spray applications, in which case the fungicides were formulated as EC formulations, containing 0.1% Trycol 5941 in the spray solutions. Wheat plants (variety Yuma) were grown from seed in a greenhouse in 50% mineral soil/50% soil-less Metro mix until the first leaf was fully emerged, with 7-10 seedlings per pot. These plants were inoculated with an aqueous spore suspension of Septoria tritici either prior to or after fungicide treatments. […] When disease symptoms were fully expressed on the 1st leaves of untreated plants, infection levels were assessed on a scale of 0 to 100 percent disease severity. Percent disease control was calculated using the ratio of disease severity on treated plants relative to untreated plants. […]
# [3] = 24 h, 1 Day Protectant, read-out: Disease Control PHAKPA 1DP
# [4] = 72 h, 3 Day Curative, read-out: Disease Control PHAKPA 3DC
SMILES,"pest or weed control at 25 ppm [1, 3]","pest or weed control at 25 ppm [1, 4]",further results
COc1ccnc(C(=O)N[C@H]2CCC[C@H](Cc3ccc(F)cc3F)[C@@H](OCC(C)C)[C@H](C)OC2=O)c1OCOC(C)=O [Compound F145],80 to 100%,0 to 80%,melting point: 48 to 53 °C
COCC[C@H]1CCC[C@H](NC(=O)c2nccc(OC)c2OC(C)=O)C(=O)O[C@@H](C)[C@@H]1Oc1ccccc1 [Compound F78],80 to 100%,80 to 100%,
COc1ccnc(C(=O)N[C@H]2CCC[C@H](Cc3ccc(F)cc3)[C@@H](OCC3CC3)[C@H](C)OC2=O)c1OC(C)=O [Compound F67],80 to 100%,0 to 80%,
C=C[C@H]1CCC[C@H](NC(=O)c2nccc(OC)c2OC(C)=O)C(=O)O[C@@H](C)[C@@H]1Oc1ccccc1 [Compound F86],80 to 100%,0 to 80%,
CCCO[C@@H]1[C@@H](Cc2ccc(OC)cc2)CCC[C@H](NC(=O)c2nccc(OC)c2OCOC(C)=O)C(=O)O[C@H]1C [Compound F119],80 to 100%,0 to 80%,
CCCO[C@@H]1[C@@H](Cc2ccccc2)CCC[C@H](NC(=O)c2nccc(OC)c2OCOC(C)=O)C(=O)O[C@H]1C [Compound F109],80 to 100%,0 to 80%,
COCC[C@H]1CCC[C@H](NC(=O)c2nccc(OC)c2OCOC(C)=O)C(=O)O[C@@H](C)[C@@H]1Oc1ccccc1 [Compound F130],80 to 100%,80 to 100%,
COc1ccnc(C(=O)N[C@H]2CCC[C@H](Cc3ccccc3)[C@@H](OCC(C)C)[C@H](C)OC2=O)c1OCOC(C)=O [Compound F106],80 to 100%,0 to 80%,Disease Control ERYSGT 1 DP [2]: A (80-100)
CCCO[C@@H]1[C@@H](CCC(C)C)CCC[C@H](NC(=O)c2nccc(OC)c2OCOC(=O)COCC)C(=O)O[C@H]1C [Compound F161],80 to 100%,80 to 100%,
CCCO[C@@H]1[C@@H](CCC(C)C)CCC[C@H](NC(=O)c2nccc(OC)c2OC(C)=O)C(=O)O[C@H]1C [Compound F64],80 to 100%,80 to 100%,
CCOCC(=O)OCOc1c(OC)ccnc1C(=O)N[C@H]1CCC[C@H](Cc2ccccc2)[C@@H](OCC(C)C)[C@H](C)OC1=O [Compound F172],80 to 100%,0 to 80%,
C=C[C@H]1CCC[C@H](NC(=O)c2nccc(OC)c2OCOC(C)=O)C(=O)O[C@@H](C)[C@@H]1Oc1ccccc1 [Compound F146],80 to 100%,80 to 100%,
CCOCC(=O)OCOc1c(OC)ccnc1C(=O)N[C@H]1CCC[C@H](Cc2ccc(F)cc2F)[C@@H](OC(=O)c2ccco2)[C@H](C)OC1=O [Compound F193],0 to 80%,0 to 80%,melting point: 70 to 75 °C
CCCO[C@@H]1[C@@H](Cc2ccc(F)cc2)CCC[C@H](NC(=O)c2nccc(OC)c2OCOC(C)=O)C(=O)O[C@H]1C [Compound F101],80 to 100%,0 to 80%,
COc1ccc(C[C@H]2CCC[C@H](NC(=O)c3nccc(OC)c3OCOC(C)=O)C(=O)O[C@@H](C)[C@@H]2OCC(C)C)cc1 [Compound F118],80 to 100%,0 to 80%,
COc1ccnc(C(=O)N[C@H]2CCC[C@H](CC3CCCCC3)[C@@H](OCC(C)C)[C@H](C)OC2=O)c1OCOC(C)=O [Compound F113],80 to 100%,0 to 80%,
CCOCC(=O)OCOc1c(OC)ccnc1C(=O)N[C@H]1CCC[C@H](Cc2ccccc2)[C@@H](OCC2CC2)[C@H](C)OC1=O [Compound F173],80 to 100%,80 to 100%,
CCOCC(=O)OCOc1c(OC)ccnc1C(=O)N[C@H]1CCC[C@H](Cc2ccc(F)cc2)[C@@H](OCC2CC2)[C@H](C)OC1=O [Compound F164],80 to 100%,0 to 80%,
CCOCC(=O)OCOc1c(OC)ccnc1C(=O)N[C@H]1CCC[C@H](Cc2ccc(F)cc2)[C@@H](OCC(C)C)[C@H](C)OC1=O [Compound F168],80 to 100%,0 to 80%,

SMILES,"pest or weed control at 25 ppm [1, 3]","pest or weed control at 25 ppm [1, 4]",further results
COc1ccnc(C(=O)N[C@H]2CCC[C@H](Cc3ccc(F)cc3)[C@@H](OCC3CC3)[C@H](C)OC2=O)c1OCOC(C)=O [Compound F98],,,"Disease Control PHAKPA 1DP ([1]; 25 ppm, 1 Day Protectant): A (80-100); Disease Control PHAKPA 3DC ([1]; 25 ppm, 3 Day Curative): A (80-100)"
COc1ccnc(C(=O)N[C@H]2CCC[C@H](Cc3ccccc3)[C@@H](OCC3CC3)[C@H](C)OC2=O)c1OCOC(C)=O [Compound F107],80 to 100%,80 to 100%,
COc1ccnc(C(=O)N[C@H]2CCC[C@H](CC3CCCC3)[C@@H](OCC3CC3)[C@H](C)OC2=O)c1OCOC(C)=O [Compound F117],80 to 100%,80 to 100%,
COc1ccnc(C(=O)N[C@H]2CCC[C@H](Cc3ccc(F)cc3F)[C@@H](OC(=O)c3ccco3)[C@H](C)OC2=O)c1OCOC(C)=O [Compound F144],0 to 80%,,melting point: 76 to 80 °C
COc1ccnc(C(=O)N[C@H]2CCC[C@H](Cc3ccccc3)[C@@H](OCC(C)C)[C@H](C)OC2=O)c1OC(C)=O [Compound F70],80 to 100%,0 to 80%,
COc1ccnc(C(=O)N[C@H]2CCC[C@H](Cc3ccc(F)cc3)[C@@H](OCC3CC3)[C@H](C)OC2=O)c1OCOC(C)=O [Compound F96],80 to 100%,,"Disease Control PHAKPA 3DC ([1]; 25 ppm, 3 Day Curative): B (More than 0-Less than 80)"
COc1ccnc(C(=O)N[C@H]2CCC[C@H](Cc3ccc(F)cc3F)[C@@H](OC(=O)c3ccco3)[C@H](C)OC2=O)c1OCOC(=O)C(C)C [Compound F157],0 to 80%,,melting point: 68 to 72 °C
"COc1ccnc(C(=O)N[C@H]2CCC[C@H](CCF)[C@@H](OCC(C)C)[C@H](C)OC2=O)c1OCOC(C)=O [Compound F128, ((2-(((3S,7R,8R,9S)-7-(2-fluoroethyl)-8-isobutoxy-9-methyl-2-oxooxonan-3-yl)carbamoyl)-4-methoxypyridin-3-yl)oxy)methyl acetate]",80 to 100%,80 to 100%,
COc1ccnc(C(=O)N[C@H]2CCC[C@H](CCBr)[C@@H](Oc3ccccc3)[C@H](C)OC2=O)c1OC(C)=O [Compound F80],80 to 100%,0 to 80%,
COc1ccnc(C(=O)N[C@H]2CCC[C@H](CC(F)F)[C@@H](Oc3ccccc3)[C@H](C)OC2=O)c1OCOC(C)=O [Compound F138],80 to 100%,80 to 100%,
CCCO[C@@H]1[C@@H](Cc2ccccc2)CCC[C@H](NC(=O)c2nccc(OC)c2OCOC(=O)COCC)C(=O)O[C@H]1C [Compound F174],80 to 100%,0 to 80%,
COc1ccnc(C(=O)N[C@H]2CCC[C@H](Cc3ccccc3)[C@@H](OCC3CC3)[C@H](C)OC2=O)c1OCOC(=O)C(C)C [Compound F152],80 to 100%,80 to 100%,
CC[C@H]1CCC[C@H](NC(=O)c2nccc(OC)c2OC(C)=O)C(=O)O[C@@H](C)[C@@H]1Oc1ccccc1 [Compound F81],80 to 100%,80 to 100%,
CCOCC(=O)OCOc1c(OC)ccnc1C(=O)N[C@H]1CCC[C@H](CCOC)[C@@H](Oc2ccccc2)[C@H](C)OC1=O [Compound F183],80 to 100%,80 to 100%,
CCCO[C@@H]1[C@@H](CCC(C)C)CCC[C@H](NC(=O)c2nccc(OC)c2OCOC(C)=O)C(=O)O[C@H]1C [Compound F92],80 to 100%,80 to 100%,
COc1ccnc(C(=O)N[C@H]2CCC[C@H](CC(F)F)[C@@H](Oc3ccccc3)[C@H](C)OC2=O)c1OC(C)=O [Compound F82],80 to 100%,80 to 100%,
CCCO[C@@H]1[C@@H](Cc2ccc(F)cc2)CCC[C@H](NC(=O)c2nccc(OC)c2OCOC(=O)COCC)C(=O)O[C@H]1C [Compound F167],80 to 100%,0 to 80%,
CCOCC(=O)OCOc1c(OC)ccnc1C(=O)N[C@H]1CCC[C@H](CCF)[C@@H](OCC(C)C)[C@H](C)OC1=O [Compound F181],80 to 100%,80 to 100%,
